This is an account of results in patent US4740233A, “Substituted 1,2,4-triazolo[1,5-a]-pyrimidine-2-sulfonamides and compositions and methods of controlling undesired vegetation and suppressing the nitrification of ammonium nitrogen in soil” (The Dow Chemical Company, priority 1986, dated 1988).

Test [1] relates to nitrification of ammonium nitrogen. The test is described as follows: Suppression of nitrification of ammonium nitrogen in soil. Conditions: 27° C. The procedure, abridged: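 Value is % NH4-N remaining after a two-week, 27° C incubation of treated soil held at 1/3 bar tension moisture. Nitrate was measured with an ion-selective electrode after extraction with ammonium sulfate solution and 10 min shaking.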

Another test has as its system sprangletop. The test is described as follows: Control of aquatic plant species (paddy water). The test is classed as in vivo, Leptochloa filiformis. The note with it: Leptochloa filiformis, 216 h, nine days, read-out: Percent control; for pest or weed control at 250 g/ha: 0.25 Kg/Ha; for pest or weed control at 1000 g/ha: 1.0 Kg/Ha; for pest or weed control at 31 g/ha: 0.031 Kg/Ha; for pest or weed control at 500 g/ha: 0.5 Kg/Ha. As to the method: (§1) In testing for such utility, the plant species to be tested were transplanted into 16 oz. containers into about 2 inches of soil when they were in the 1-2 inch stage and then flooded to a depth of about 1 inch. An acetone concentrate of the chemical to be tested was then injected into the paddy water, the volume injected being varied as desired to provide the desired concentration. Percent control was evaluated nine days after application.

The subject of a further test is barnyardgrass. The test is described as follows: Control of aquatic plant species (paddy water). The test is classed as in vivo, Echinochloa crusgalli. The note with it: Echinochloa crus-galli, 216 h, nine days, read-out: Percent control; for pest or weed control at 250 g/ha: 0.25 Kg/Ha; for pest or weed control at 1000 g/ha: 1.0 Kg/Ha; for pest or weed control at 31 g/ha: 0.031 Kg/Ha; for pest or weed control at 500 g/ha: 0.5 Kg/Ha. The protocol:
as §1

The test system of a further test is yellow nutsedge. The test is described as follows: Control of aquatic plant species (paddy water). The test is classed as in vivo, Cyperus esculentus. The note with it: Cyperus, 216 h, nine days, read-out: Percent control; for pest or weed control at 250 g/ha: 0.25 Kg/Ha; for pest or weed control at 1000 g/ha: 1.0 Kg/Ha; for pest or weed control at 31 g/ha: 0.031 Kg/Ha; for pest or weed control at 500 g/ha: 0.5 Kg/Ha. The protocol: as §1

The subject of a further test is rice. The experiment in a line: Control of aquatic plant species (paddy water). In kind it is in vivo, Oryza sativa. Conditions: Oryza sativa, 216 h, nine days, read-out: Percent control; for pest or weed control at 250 g/ha: 0.25 Kg/Ha; for pest or weed control at 1000 g/ha: 1.0 Kg/Ha; for pest or weed control at 31 g/ha: 0.031 Kg/Ha; for pest or weed control at 500 g/ha: 0.5 Kg/Ha. The protocol:
as §1

Regarding `CSc1ccccc1NS(=O)(=O)c1nc2nc(C)cc(C)n2n1` [Compound 9], the “% NH4-N Remaining After 2 Weeks Incubation” value in test [1] (0.01 ppm) came to 0%; in test [1] (0.1 ppm) it was 14%; in test [1] (1 ppm) it was 59%; in test [1] (10 ppm), 88%. The pest or weed control at 250 g/ha amounted to 80% in the test with sprangletop, 93% with barnyardgrass, 30% in the test on yellow nutsedge and 0% in the test with rice. Besides, the pest or weed control at 1000 g/ha in the test on sprangletop was found to be 97%; in the test with barnyardgrass it was 99%; in the test with yellow nutsedge it was 85%; with rice, 25%.
Turning to `Cc1cc(C)n2nc(S(=O)(=O)Nc3ccccc3C)nc2n1` [Compound 2], the “% NH4-N Remaining After 2 Weeks Incubation” value worked out at 0% in test [1] (0.01 ppm), 0% in test [1] (0.1 ppm), 39% in test [1] (1 ppm) and 78% in test [1] (10 ppm). In addition, the pest or weed control at 2000 g/ha in the test with sprangletop (2.0 Kg/Ha) worked out at 99%; with barnyardgrass (2.0 Kg/Ha), 97%; with yellow nutsedge (2.0 Kg/Ha), 93%; in the test on rice (2.0 Kg/Ha), 97%.
As for `Cc1cc(C)n2nc(S(=O)(=O)Nc3c(Br)cccc3Br)nc2n1` [Compound 38], the “% NH4-N Remaining After 2 Weeks Incubation” value stood at 46% in test [1] (0.01 ppm), 68% in test [1] (0.1 ppm), 84% in test [1] (1 ppm) and 94% in test [1] (10 ppm). Also, the pest or weed control at 31 g/ha in the test on sprangletop came to 0%; with barnyardgrass, 80%; in the test on yellow nutsedge it was 95%; with rice it was 0%. Moreover, the pest or weed control at 250 g/ha with sprangletop was determined as 85%; in the test with barnyardgrass, 99%; with yellow nutsedge, 97%; with rice, 97%.
On to `O=S(=O)(Nc1c(Cl)cccc1Cl)c1nc2ncc(Cl)cn2n1` [Compound 114], for which the pest or weed control at 250 g/ha in the test with sprangletop stood at 0%; in the test with barnyardgrass, 80%; in the test with yellow nutsedge, 65%; in the test with rice, 0%. Further, the pest or weed control at 1000 g/ha was determined as 0% with sprangletop, 95% with barnyardgrass, 90% in the test with yellow nutsedge and 70% in the test on rice.
For `Cc1cc(C)n2nc(S(=O)(=O)Nc3c(Cl)cccc3I)nc2n1` [Compound 53], the “% NH4-N Remaining After 2 Weeks Incubation” value in test [1] (0.01 ppm) came to 47%; in test [1] (0.1 ppm), 71%; in test [1] (1 ppm), 85%; in test [1] (10 ppm), 93%. Besides, the pest or weed control at 31 g/ha in the test on sprangletop came out at 10%; with barnyardgrass, 80%; with yellow nutsedge, 95%; with rice, 0%. Besides, the pest or weed control at 500 g/ha amounted to 97% in the test with sprangletop, 99% in the test on barnyardgrass, 99% with yellow nutsedge and 99% in the test on rice.
`Cc1cc(C)n2nc(S(=O)(=O)Nc3ccccc3S(=O)(=O)N(C)C)nc2n1` [Compound 15]: the “% NH4-N Remaining After 2 Weeks Incubation” value in test [1] (0.06 ppm) is reported as 1%; in test [1] (0.125 ppm) it was 0%; in test [1] (0.25 ppm), 23%; in test [1] (0.5 ppm), 42%; in test [1] (1 ppm), 54%. For the same molecule, the pest or weed control at 4000 g/ha in the test on sprangletop (4.0 Kg/Ha) came to 0%; in the test on barnyardgrass (4.0 Kg/Ha), 25%; with yellow nutsedge (4.0 Kg/Ha), 70%; in the test on rice (4.0 Kg/Ha), 35%.
On to `Cc1cc(C)n2nc(S(=O)(=O)Nc3c(F)cccc3Cl)nc2n1` [Compound 54], for which the “% NH4-N Remaining After 2 Weeks Incubation” value came to 20% in test [1] (0.06 ppm), 51% in test [1] (0.25 ppm), 66% in test [1] (1 ppm) and 76% in test [1] (4 ppm). The pest or weed control at 500 g/ha in the test on sprangletop stood at 0%; in the test on barnyardgrass it was 97%; with yellow nutsedge it was 95%; in the test on rice it was 97%.
Turning to `Cc1cc(C)n2nc(S(=O)(=O)Nc3c(C)cccc3[N+](=O)[O-])nc2n1` [Compound 49], the “% NH4-N Remaining After 2 Weeks Incubation” value is 42% in test [1] (0.01 ppm), 77% in test [1] (0.1 ppm), 90% in test [1] (1 ppm) and 99% in test [1] (10 ppm). Also, the pest or weed control at 16 g/ha with sprangletop (0.016 Kg/Ha) came out at 0%; with barnyardgrass (0.016 Kg/Ha) it was 50%; in the test with yellow nutsedge (0.016 Kg/Ha), 95%; in the test with rice (0.016 Kg/Ha) it was 0%. In addition, the pest or weed control at 500 g/ha in the test with sprangletop is 97%; in the test with barnyardgrass, 97%; in the test on yellow nutsedge, 99%; in the test with rice, 97%.
